Data as given in patent US20220315554A1, “COMPOUNDS COMPRISING A […] LIGAND AND USE THEREOF” (priority 2019, published 2022).
Numbered stars: 1 amine (or outer) side, 2 acyl side, 3 side chain; on linkers, the order of the positions; unused ones are H or OH. Bridge positions count the residues as written; N and C are the ends. Square brackets hold non-standard residues; d marks the D form. Peptide text beside a SMILES is read from it. * marks the point of attachment. X2 = O=C(O)CN1CCN(CC(=O)O)CCN(CC(=O)NCCCOCCOCCOCCCN*)CCN(CC(=O)O)CC1; DOTA = O=C(O)CN1CCN(CC(=O)O)CCN(CC(=O)*)CCN(CC(=O)O)CC1; mXylylene = c1cc(C[*:1])cc(C[*:2])c1; Suc = O=C(CCC(=O)[*:2])[*:1]; Nle = CCCC[C@H](N)C(=O)O

Tests used:
[1] = target: T1, FAP-expressing human WI-38 fibroblasts (Homo sapiens, UniProt Q12884); assay: Competitive FACS binding assay; settings: pIC50 Category (FACS), competition with 3 nM Cy5-labeled compound, WI-38 fibroblasts, 4° C., 1 hour
T1 construct: FAP-expressing human WI-38 fibroblasts (ECACC) were cultured in EMEM; host or cells: WI-38 human fibroblasts
T1 sequence (Q12884 1-760): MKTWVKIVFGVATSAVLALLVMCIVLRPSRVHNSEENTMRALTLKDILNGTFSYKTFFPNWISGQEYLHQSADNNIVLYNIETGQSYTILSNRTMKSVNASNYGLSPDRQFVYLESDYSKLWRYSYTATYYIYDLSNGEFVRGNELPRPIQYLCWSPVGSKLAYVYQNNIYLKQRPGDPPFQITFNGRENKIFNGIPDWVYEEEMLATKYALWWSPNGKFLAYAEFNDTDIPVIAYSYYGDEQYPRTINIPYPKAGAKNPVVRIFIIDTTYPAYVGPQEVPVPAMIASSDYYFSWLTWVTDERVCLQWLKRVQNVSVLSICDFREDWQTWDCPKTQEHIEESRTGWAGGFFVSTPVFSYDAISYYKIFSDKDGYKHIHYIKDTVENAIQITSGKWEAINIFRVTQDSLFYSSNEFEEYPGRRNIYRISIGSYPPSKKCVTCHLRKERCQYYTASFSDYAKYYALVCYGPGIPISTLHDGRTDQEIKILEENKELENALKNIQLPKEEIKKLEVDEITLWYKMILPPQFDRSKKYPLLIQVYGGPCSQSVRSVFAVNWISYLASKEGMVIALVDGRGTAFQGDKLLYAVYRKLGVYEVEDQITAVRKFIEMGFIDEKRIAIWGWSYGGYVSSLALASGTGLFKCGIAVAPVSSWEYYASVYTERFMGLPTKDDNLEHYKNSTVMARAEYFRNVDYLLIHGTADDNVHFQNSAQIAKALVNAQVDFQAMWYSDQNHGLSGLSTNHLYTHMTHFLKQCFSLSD
Description: Cells were analyzed in an Attune NxT flow cytometer. […]

Human recombinant FAP = target: T2, Human recombinant FAP (Homo sapiens, UniProt Q12884); assay: FRET-based FAP protease activity assay; format: biochemical; design: purchased R&D systems 3715-SE; settings: pIC50 Category (Activity), recombinant human FAP, FRET substrate, 37° C.
T2 sequence (Q12884 1-760): T1 sequence (Q12884 1-760)

| SMILES | IC50 [1] [nM] | IC50 (Human recombinant FAP) [nM] |
| --- | --- | --- |
| CCCC[C@H](NC(=O)CN1CCN(CC(=O)O)CCN(CC(=O)O)CCN(CC(=O)O)CC1)C(=O)N[C@H]1CSCc2cccc(c2)CSC[C@@H](C(=O)N[C@@H](CC(=O)O)C(=O)N[C@@H](Cc2c[nH]cn2)C(=O)N[C@@H](Cc2ccccc2)C(=O)N[C@@H](CCCNC(=N)N)C(=O)N[C@@H](CC(=O)O)C(N)=O)NC(=O)[C@H](Cc2ccccc2)NC(=O)[C@H](CCC(=O)O)NC(=O)[C@H]([C@@H](C)O)NC(=O)[C@@H]2CCCN2C(=O)[C@@H]2CCCN2C1=O [3BP-3088, DOTA-Nle-[Cys(3MeBn)-Pro-Pro-Thr-Glu-Phe-Cys]-Asp-His-Phe-Arg-Asp-NH2] ({DOTA}-[Nle]CPPTEFCDHFRD-NH2; linker 2-8 via mXylylene) | 100 to 794 | 100 to 794 |
| CC(C)C[C@H](NC(=O)CCC(=O)NCCCOCCOCCOCCOCCCNC(=O)CN1CCN(CC(=O)O)CCN(CC(=O)O)CCN(CC(=O)O)CC1)C(=O)N[C@H]1CSCc2cccc(c2)CSC[C@@H](C(=O)N[C@@H](CC(=O)O)C(=O)N[C@@H](Cc2c[nH]cn2)C(=O)N[C@@H](Cc2ccccc2)C(=O)N[C@@H](CCCNC(=N)N)C(=O)N[C@@H](CC(=O)O)C(N)=O)NC(=O)[C@H](Cc2ccccc2)NC(=O)[C@H](CCC(=O)O)NC(=O)[C@H]2NC(=O)[C@@H]3C(CCN3C(=O)[C@@H]3CCCN3C1=O)[C@H]2O [3BP-3172, DOTA-Ttds-Leu-[Cys(3MeBn)-Pro-Pro-Thr-Glu-Phe-Cys]-Asp-His-Phe-Arg-Asp-NH2] | < 10 | < 10 |
| C[C@@H](O)[C@@H]1NC(=O)[C@@H]2CCCN2C(=O)[C@@H]2CCCN2C(=O)[C@@H](NC(=O)[C@H](CCC(=O)O)NC(=O)CCC(=O)NCCCOCCOCCOCCCNC(=O)CN2CCN(CC(=O)O)CCN(CC(=O)O)CCN(CC(=O)O)CC2)CSCc2cccc(c2)CSC[C@@H](C(=O)N[C@@H](CC(=O)O)C(=O)N[C@@H](Cc2c[nH]cn2)C(=O)N[C@@H](Cc2ccccc2)C(=O)N[C@@H](CCCNC(=N)N)C(=O)N[C@@H](CC(=O)O)C(N)=O)NC(=O)[C@H](Cc2ccccc2)NC(=O)[C@H](CCC(=O)O)NC1=O [3BP-3173, DOTA-Ttds-Glu-[Cys(3MeBn)-Pro-Pro-Thr-Glu-Phe-Cys]-Asp-His-Phe-Arg-Asp-NH2] ({X2-Suc}-ECPPTEFCDHFRD-NH2; linker 2-8 via mXylylene) | 10 to 79.4 | 10 to 79.4 |
| CSCC[C@H](NC(C)=O)C(=O)N[C@H]1CSCc2cccc(c2)CSC[C@@H](C(=O)N[C@@H](CC(=O)O)C(=O)N[C@@H](Cc2c[nH]cn2)C(=O)N[C@@H](Cc2ccccc2)C(=O)N[C@@H](CCCNC(=N)N)C(=O)N[C@@H](CC(=O)O)C(N)=O)NC(=O)[C@H](Cc2ccccc2)NC(=O)[C@H](CCC(=O)O)NC(=O)[C@H]([C@@H](C)O)NC(=O)[C@@H]2CCCN2C(=O)[C@H]2CCCN2C1=O [3BP-3176, Ac-Met-[Cys(3MeBn)-pro-Pro-Thr-Glu-Phe-Cys]-Asp-His-Phe-Arg-Asp-NH2] (Ac-MC[dP]PTEFCDHFRD-NH2; linker 2-8 via mXylylene) | 100 to 794 | 100 to 794 |
| CSCC[C@H](NC(C)=O)C(=O)N[C@H]1CSCc2cccc(c2)CSC[C@@H](C(=O)N[C@@H](CC(=O)O)C(=O)N[C@@H](Cc2c[nH]cn2)C(=O)N[C@@H](Cc2ccccc2)C(=O)N[C@@H](CCCNC(=N)N)C(=O)N[C@@H](CC(=O)O)C(N)=O)NC(=O)[C@H](Cc2ccccc2)NC(=O)[C@H](CCC(=O)O)NC(=O)[C@@H]([C@H](C)O)NC(=O)[C@@H]2CCCN2C(=O)[C@@H]2CCCN2C1=O [3BP-3178, Ac-Met-[Cys(3MeBn)-Pro-Pro-thr-Glu-Phe-Cys]-Asp-His-Phe-Arg-Asp-NH2] (Ac-MCPP[dT]EFCDHFRD-NH2; linker 2-8 via mXylylene) | 10 to 79.4 | 10 to 79.4 |
| CSCC[C@H](NC(C)=O)C(=O)N[C@H]1CSCc2cccc(c2)CSC[C@@H](C(=O)N[C@@H](CC(=O)O)C(=O)N[C@@H](Cc2c[nH]cn2)C(=O)N[C@@H](Cc2ccccc2)C(=O)N[C@@H](CCCNC(=N)N)C(=O)N[C@@H](CC(=O)O)C(N)=O)NC(=O)[C@@H](Cc2ccccc2)NC(=O)[C@H](CCC(=O)O)NC(=O)[C@H]([C@@H](C)O)NC(=O)[C@@H]2CCCN2C(=O)[C@@H]2CCCN2C1=O [3BP-3180, Ac-Met-[Cys(3MeBn)-Pro-Pro-Thr-Glu-phe-Cys]-Asp-His-Phe-Arg-Asp-NH2] (Ac-MCPPTE[dF]CDHFRD-NH2; linker 2-8 via mXylylene) | 100 to 794 | 100 to 794 |

Further lines, results first:

| IC50 [1] [nM] | IC50 (Human recombinant FAP) [nM] | SMILES |
| --- | --- | --- |
| 100 to 794 | 100 to 794 | CSCC[C@H](NC(=O)CN1CCN(CC(=O)O)CCN(CC(=O)O)CCN(CC(=O)O)CC1)C(=O)N[C@H]1CSCc2cccc(c2)CSC[C@@H](C(=O)N[C@@H](CC(=O)O)C(=O)N[C@@H](Cc2c[nH]cn2)C(=O)N[C@@H](Cc2ccccc2)C(=O)N[C@@H](CCCNC(=N)N)C(=O)N[C@@H](CC(=O)O)C(N)=O)NC(=O)[C@H](Cc2ccccc2)NC(=O)[C@H](CCC(=O)O)NC(=O)[C@H]([C@@H](C)O)NC(=O)[C@@H]2CCCN2C(=O)[C@@H]2CCCN2C1=O [3BP-3170, DOTA-Met-[Cys(3MeBn)-Pro-Pro-Thr-Glu-Phe-Cys]-Asp-His-Phe-Arg-Asp-NH2] ({DOTA}-MCPPTEFCDHFRD-NH2; linker 2-8 via mXylylene) |
| 10 to 79.4 | 10 to 79.4 | C[C@@H](O)[C@@H]1NC(=O)[C@@H]2CCCN2C(=O)[C@@H]2CCCN2C(=O)[C@@H](NC(=O)[C@H](Cc2ccccc2)NC(=O)CCC(=O)NCCCOCCOCCOCCCNC(=O)CN2CCN(CC(=O)O)CCN(CC(=O)O)CCN(CC(=O)O)CC2)CSCc2cccc(c2)CSC[C@@H](C(=O)N[C@@H](CC(=O)O)C(=O)N[C@@H](Cc2c[nH]cn2)C(=O)N[C@@H](Cc2ccccc2)C(=O)N[C@@H](CCCNC(=N)N)C(=O)N[C@@H](CC(=O)O)C(N)=O)NC(=O)[C@H](Cc2ccccc2)NC(=O)[C@H](CCC(=O)O)NC1=O [3BP-3171, DOTA-Ttds-Phe-[Cys(3MeBn)-Pro-Pro-Thr-Glu-Phe-Cys]-Asp-His-Phe-Arg-Asp-NH2] ({X2-Suc}-FCPPTEFCDHFRD-NH2; linker 2-8 via mXylylene) |
| 100 to 794 | 100 to 794 | C[C@@H](O)[C@@H]1NC(=O)[C@@H]2CCCN2C(=O)[C@@H]2CCCN2C(=O)[C@@H](NC(=O)CN2CCN(CC(=O)O)CCN(CC(=O)O)CCN(CC(=O)O)CC2)CSCc2cccc(c2)CSC[C@@H](C(=O)N[C@@H](CC(=O)O)C(=O)N[C@@H](Cc2c[nH]cn2)C(=O)N[C@@H](Cc2ccccc2)C(=O)N[C@@H](CCCNC(=N)N)C(=O)N[C@@H](CC(=O)O)C(N)=O)NC(=O)[C@H](Cc2ccccc2)NC(=O)[C@H](CCC(=O)O)NC1=O [3BP-3174, DOTA-[Cys(3MeBn)-Pro-Pro-Thr-Glu-Phe-Cys]-Asp-His-Phe-Arg-Asp-NH2] ({DOTA}-CPPTEFCDHFRD-NH2; linker 1-7 via mXylylene) |
| 10 to 79.4 | 100 to 794 | CSCC[C@H](NC(C)=O)C(=O)N[C@H]1CSCc2cccc(c2)CSC[C@@H](C(=O)N[C@@H](CC(=O)O)C(=O)N[C@@H](Cc2c[nH]cn2)C(=O)N[C@@H](Cc2ccccc2)C(=O)N[C@@H](CCCNC(=N)N)C(=O)N[C@@H](CC(=O)O)C(N)=O)NC(=O)[C@H](Cc2ccccc2)NC(=O)[C@@H](CCC(=O)O)NC(=O)[C@H]([C@@H](C)O)NC(=O)[C@@H]2CCCN2C(=O)[C@@H]2CCCN2C1=O [3BP-3179, Ac-Met-[Cys(3MeBn)-Pro-Pro-Thr-glu-Phe-Cys]-Asp-His-Phe-Arg-Asp-NH2] (Ac-MCPPT[dE]FCDHFRD-NH2; linker 2-8 via mXylylene) |
